Values after ≈ are worked out from the molar mass of the structure shown. Where two headings read alike, the source gives them in different places. Marks after values point to notes of the source that are not given here.
Key:
[1] = system: Streptococcus pneumoniae (R6); test: MIC, spectrum of activity: S.pn; assay type: cell-based; conditions: read-out: Minimum Inhibitory Concentration, S. Pn.
[2] = system: Pseudomonas aeruginosa (PA01); test: microbe, parasite or virus in culture; assay type: cell-based
[3] = system: Proteus mirabilis(ATCC 25933); test: MIC, spectrum of activity: Proteus mirabilis; assay type: cell-based; conditions: ATCC25933
[4] = system: hypoxic M. tuberculosis strain H37Rv; test: NRP bacteria under hypoxia (rapid anaerobic dormancy model); assay type: cell-based, Mycobacterium tuberculosis
[5] = system: Acinetobacter baumannii (ATCC 19606); test: MIC, spectrum of activity: Acinetobacter baumannii; assay type: cell-based; conditions: ATCC19606
[6] = mouse, plasma; cited from earlier work
M. tuberculosis = test: MIC determination, microbroth dilution, M. tuberculosis; assay type: cell-based, Mycobacterium tuberculosis; conditions: for MIC: Mycobacterium tuberculosis
in vitro = conditions: mouse, microsomes
E. coli K12 ∆tolC = assay type: cell-based; conditions: E. coli K12 ∆tolC (efflux pump deficient)
[7] = system: Stenotrophomonas maltophilia (ATCC 13637); test: MIC, spectrum of activity: S.m.; assay type: cell-based; conditions: ATCC13637, read-out: Minimum Inhibitory Concentration, S.m.
[8] = system: Staphylococcus aureus (ATCC 29213); test: MIC, spectrum of activity: S.a.; assay type: cell-based; conditions: ATCC29213, read-out: Minimum Inhibitory Concentration, S.a
M. fortuitum (ATCC 6841) = test: MIC, non-tuberculosis mycobacteria: M. fortuitum; assay type: cell-based; conditions: Mycolicibacterium fortuitum, ATCC6841, 72 h; broth dilution, visual inspection, 3 days; read-out: Minimum Inhibitory Concentration, M. fortuitum
[9] = system: Klebsiella pneumoniae (ATCC 33495); test: MIC, spectrum of activity: Klebsiella pneumoniae; assay type: cell-based; conditions: ATCC33495
[10] = system: Escherichia coli (ATCC 700926); test: MIC, spectrum of activity: E.c.; assay type: cell-based; conditions: ATCC700926, read-out: Minimum Inhibitory Concentration, E.c.
M. kansasii (ATCC 12478) = test: MIC, non-tuberculosis mycobacteria: M. kansasii; assay type: cell-based; conditions: Mycobacterium kansasii, ATCC12478, 168 h; broth dilution, visual inspection, 7 days; read-out: Minimum Inhibitory Concentration, M. kansasii
H37Rv-wt = test: microbe, parasite or virus in culture; assay type: cell-based, M. tuberculosis; conditions: Mycobacterium tuberculosis
[11] = In vitro cytotoxicity against Vero cells; conditions: African green monkey, Vero cells (kidney epithelial cells, ATCC CCL-81)
Vero cells = test: In vitro cytotoxicity against Vero cells
[12] = system: Bacillus anthracis sterne 34F2; test: microbe, parasite or virus in culture; assay type: cell-based; conditions: STERNE34F2, read-out: Minimum Inhibitory Concentration, B.a.
[13] = system: Staphylococcus aureus (NRS70); test: MIC, spectrum of activity: MRSA; assay type: cell-based; conditions: read-out: Minimum Inhibitory Concentration, MRSA
[14] = system: Enterococcus faecalis (ATCC 33186); test: MIC, spectrum of activity: E.f.; assay type: cell-based; conditions: ATCC33186, read-out: Minimum Inhibitory Concentration, E.f.
M. ulcerans (ATCC 35840) = test: MIC by agar proportion method: M. ulcerans; assay type: cell-based; conditions: Mycobacterium ulcerans, ATCC35840, 672 h; agar proportion method, 4 weeks; read-out: Minimum Inhibitory Concentration, M. ulcerans
M. tuberculosis Erdman = conditions: for Log10CFU Reduction (SEM), lungs / Log10CFU Reduction (SEM), spleen: vs untreated
[15] = system: M. abscessus (ATCC 19977); test: MIC, non-tuberculosis mycobacteria: M. abscessus; assay type: cell-based; conditions: Mycobacteroides abscessus, ATCC19977, 72 h; broth dilution, visual inspection, 3 days; range of at least two independent experiments; read-out: Minimum Inhibitory Concentration, M. abscessus
[16] = system: Bacillus subtilis (ATCC 23857); test: MIC, spectrum of activity: B.s.; assay type: cell-based; conditions: ATCC23857, read-out: Minimum Inhibitory Concentration, B.s.
[17] = system: M. tuberculosis strain H37Rv (mid-log and nutrient-starved); test: Nutrient starvation model of nonreplicating persisters; assay type: cell-based, Mycobacterium tuberculosis
[18] = system: Streptococcus pyogenes (ATCC 700294); test: MIC, spectrum of activity: S.py; assay type: cell-based; conditions: ATCC700294, read-out: Minimum Inhibitory Concentration, S. Py.
[19] = system: Proteus vulgaris (ATCC 33420); test: MIC, spectrum of activity: Proteus vulgaris; assay type: cell-based; conditions: ATCC33420
M. tuberculosis H37Rv = test: Minimum bactericidal concentration determination; assay type: cell-based, Mycobacterium tuberculosis
M. avium (ATCC 25291) = test: MIC, non-tuberculosis mycobacteria: M. avium; assay type: cell-based; conditions: Mycobacterium avium, ATCC25291, 168 h; broth dilution, visual inspection, 7 days; read-out: Minimum Inhibitory Concentration, M. avium
[20] = rats; IV 10 mg/kg and oral 100 mg/kg
[21] = group 1: 9a 300 mg/kg QD oral, 9 days, in 0.5% methylcellulose in DI-H2O
[22] = group 2: 9a 300 mg/kg QD oral, 9 days, in 30% Captisol in DI-H2O
[23] = group 3: 9a 300 mg/kg QD oral, 9 days, in 10% Vitamin E TPGS in DI-H2O
[24] = group 4: 9a 300 mg/kg QD oral, 9 days, in 0.5% Tween 80 in DI-H2O
[25] = group 5: 9a 300 mg/kg QD oral, 9 days, in 20% cyclodextrin in DI-H2O
[26] = group 6: 9a 300 mg/kg QD oral, 9 days, in cold PEG (50:35:15 H2O:PEG300:PG)

## O=[N+]([O-])c1ccc(C2=NOC(c3ccc(N4CCC(Oc5ccc(OC(F)(F)F)cc5)CC4)cc3)C2)o1 (centres unmarked) [Compound 9a, 3-(5-Nitrofuran-2-yl)-5-(4-(4-(4-(trifluoromethoxy)phenoxy)piperidin-1-yl)phenyl)-4,5-dihydroisoxazole]
[1]
  MIC: 100 µg/mL (≈ 193 µM)
[2]
  MIC: > 200 µg/mL
[3]
  MIC: > 200 µg/mL
[4]
  % Growth vs. Control: <0.1%
[4]; 10 µg/mL, NRP-2 bacilli
  killing of hypoxic bacilli: > 99.9%
[5]
  MIC: > 200 µg/mL
[6]
  Plasma Protein binding: 99.9 ^h %
M. tuberculosis; M. tuberculosis MIC compared with PA-824
  fold more potent than PA-824 (MIC): 20 fold
M. tuberculosis; 168 h, read-out: M. tb. MIC
  MIC: 0.024 µg/mL
M. tuberculosis; M. tuberculosis, […], read-out: MIC
  MIC: 0.046 µM
In vitro
  half-life: 5.06 h
E. coli K12 ∆tolC
  Minimum Inhibitory Concentration, E.c. ΔtolC: 50 µg/mL
[7]
  MIC: 25 µg/mL (≈ 48.3 µM)
[8]
  MIC: 50 µg/mL (≈ 96.6 µM)
M. fortuitum (ATCC 6841)
  MIC: 6.25 to 12.5 µg/mL (≈ 12.1 to 24.2 µM)
[9]
  MIC: > 200 µg/mL
[10]
  MIC: > 200 µg/mL
M. kansasii (ATCC 12478)
  MIC: 3.13 to 6.25 µg/mL (≈ 6.05 to 12.1 µM)
H37Rv-wt
  MIC: 0.025 µg/mL (≈ 0.0483 µM)
[11]
  IC50: 19.4 µg/mL (≈ 37.5 µM)
Vero cells
  Selective Index (Cytox/MIC): 808
[12]
  MIC: 12.5 µg/mL (≈ 24.2 µM)
[13]
  MIC: 50 µg/mL (≈ 96.6 µM)
[14]
  MIC: > 200 µg/mL
M. ulcerans (ATCC 35840)
  MIC: 0.02 to 0.05 µg/mL (≈ 0.0387 to 0.0966 µM)
M. tuberculosis Erdman; GKO mice, 300 mg/kg oral daily, 9 days, across formulations
  reduction of bacterial load in lungs: 91–97%
M. tuberculosis Erdman; GKO mice, after 9 days of treatment
  reduction in bacillary load, lungs and spleens: > 90%
M. tuberculosis Erdman; GKO mice, daily oral administration at 300 mg/kg, 9 days, each of six formulations
  tolerability: well tolerated
M. tuberculosis Erdman; [21]
  Log10CFU Reduction (SEM), lungs: 1.06 (0.18) Log10CFU
  Log10CFU (SEM), lungs: 7.01 (0.11) Log10CFU
  Log10CFU Reduction (SEM), spleen: 0.95 (0.18) Log10CFU
  Log10CFU (SEM), spleen: 6.25 (0.11) Log10CFU
M. tuberculosis Erdman; [22]
  Log10CFU Reduction (SEM), lungs: 1.30 (0.20) Log10CFU
  Log10CFU (SEM), lungs: 6.77 (0.14) Log10CFU
  Log10CFU Reduction (SEM), spleen: 1.48 (0.17) Log10CFU
  Log10CFU (SEM), spleen: 5.72 (0.09) Log10CFU
M. tuberculosis Erdman; [23]
  Log10CFU Reduction (SEM), lungs: 1.47 (0.18) Log10CFU
  Log10CFU (SEM), lungs: 6.61 (0.11) Log10CFU
  Log10CFU Reduction (SEM), spleen: 1.77 (0.27) Log10CFU
  Log10CFU (SEM), spleen: 5.43 (0.23) Log10CFU
M. tuberculosis Erdman; [24]
  Log10CFU Reduction (SEM), lungs: 1.38 (0.16) Log10CFU
  Log10CFU (SEM), lungs: 6.69 (0.07) Log10CFU
  Log10CFU Reduction (SEM), spleen: 1.17 (0.18) Log10CFU
  Log10CFU (SEM), spleen: 6.03 (0.12) Log10CFU
M. tuberculosis Erdman; [25]
  Log10CFU Reduction (SEM), lungs: 1.08 (0.15) Log10CFU
  Log10CFU (SEM), lungs: 6.99 (0.06) Log10CFU
  Log10CFU Reduction (SEM), spleen: 1.44 (0.16) Log10CFU
  Log10CFU (SEM), spleen: 5.76 (0.08) Log10CFU
M. tuberculosis Erdman; [26]
  Log10CFU Reduction (SEM), lungs: 1.10 (0.21) Log10CFU
  Log10CFU (SEM), lungs: 6.99 (0.15) Log10CFU
  Log10CFU Reduction (SEM), spleen: 1.03 (0.20) Log10CFU
  Log10CFU (SEM), spleen: 6.17 (0.14) Log10CFU
[15]
  MIC: 12.5 µg/mL (≈ 24.2 µM)
[16]
  MIC: 100 µg/mL (≈ 193 µM)
[17]
  reduction in viability (killing) of actively growing culture: 80%
  reduction in viability of nutrient starved bacilli: 80%
[18]
  MIC: 200 µg/mL (≈ 387 µM)
[19]
  MIC: > 200 µg/mL
M. tuberculosis H37Rv
  MBC: 3.13–6.25
M. tuberculosis H37Rv; cidal or static from MBC versus MIC
  Classification: Static (static (MBC/MIC >4))
M. avium (ATCC 25291)
  MIC: 200 µg/mL (≈ 387 µM)
[20]
  Toxicity by intravenous and oral dosing: non-toxic

Reference: article PMC3914891, “Pentacyclic Nitrofurans with In Vivo Efficacy and Activity against Nonreplicating Mycobacterium tuberculosis” (PLoS ONE, 2014)
